Results reported in ChEMBL document CHEMBL4371096, “Polyoxygenated Cyclohexenes and Their Chlorinated Derivatives from the Leaves of Uvaria cherrevensis” (J Nat Prod, 2019).

Tests used:
[1] = tested on: Plasmodium falciparum; experiment: Antimalarial activity against drug-resistant Plasmodium falciparum K1CB1 after 48 hrs by SYBR Green1 dye based fluorescence assay; format: functional, organism-based; settings: K1CB1, 48 h
[2] = tested on: Vero; experiment: Cytotoxicity against African green monkey Vero cells; format: cell-based; settings: Chlorocebus sabaeus
[3] = tested on: Plasmodium falciparum; experiment: Antimalarial activity against drug-sensitive Plasmodium falciparum TM4/8.2 after 48 hrs by SYBR Green1 dye based fluorescence assay; format: functional, organism-based; settings: TM4/8.2, 48 h
[4] = tested on: KB; experiment: Cytotoxicity against human KB cells; format: functional, cell-based

Measured: IC50

CC1(C)O[C@H]2C=C[C@@H](OC(=O)c3ccccc3)[C@H](O)[C@@]2(COC(=O)c2ccccc2)O1
> 50 µM: all assays above

O=C(OC[C@]1(O)[C@H](OC(=O)c2ccccc2)C=C[C@@H](OC(=O)c2ccccc2)[C@@H]1O)c1ccccc1
> 50 µM: all assays above

O=C(OCC1=C[C@H]2Oc3ccccc3C[C@H]2[C@@H](OC(=O)c2ccccc2)[C@@H]1O)c1ccccc1
> 50 µM: all assays above

CC(=O)O[C@H]1C=CC=C(COC(=O)c2ccccc2)[C@@H]1O
> 50 µM: all assays above

O=C(OC[C@]1(O)[C@H](Cl)C=C[C@@H](OC(=O)c2ccccc2)[C@@H]1O)c1ccccc1
> 50 µM: all assays above

O=C(OCC1=C[C@@H](O)[C@H](O)[C@H](OC(=O)c2ccccc2)[C@H]1O)c1ccccc1
> 50 µM: all assays above

O=C(OC[C@]1(O)[C@H](Cl)C=C[C@H](O)[C@H]1O)c1ccccc1
> 50 µM: all assays above

CC(=O)O[C@H]1C=C[C@@H](Cl)[C@@](O)(COC(=O)c2ccccc2)[C@@H]1O
> 50 µM: all assays above

O=C(OC[C@]12O[C@H]1C=C[C@@H](OC(=O)c1ccccc1)[C@H]2O)c1ccccc1
> 50 µM: all assays above

O=C(OC[C@]1(O)[C@@H](O)C=C[C@@H](O)[C@@H]1O)c1ccccc1
> 50 µM: all assays above

CC(=O)O[C@H]1C=CC=C[C@@]1(O)COC(=O)c1ccccc1
> 50 µM: all assays above

CC(=O)O[C@H]1C=C[C@@H](O)[C@H](O)[C@@]1(O)COC(=O)c1ccccc1
> 50 µM: all assays above

CC(=O)O[C@@H]1C=C[C@@H](OC(=O)c2ccccc2)[C@H](O)[C@]1(O)COC(=O)c1ccccc1
> 50 µM: all assays above

O=C(OC/C=C/C=C/[C@H](O)COC(=O)c1ccccc1)c1ccccc1
> 50 µM: all assays above

COc1ccc2c(c1)C[C@H]1[C@@H](OC(=O)c3ccccc3)[C@H](O)C(COC(=O)c3ccccc3)=C[C@H]1O2
> 50 µM: all assays above
